According to publication PMC11024163, “MmcA is an electron conduit that facilitates both intracellular and extracellular electron transport in Methanosarcina acetivorans” (Nature Communications, 2024):

Target: T1, MmcA (Methanosarcina acetivorans, UniProt Q8TSY5)
T1 construct: gene MA_0658; mature holo-protein of 476 aa (signal peptide removed), C-terminal 3xFLAG and twin-Strep tags kept; homologous expression in M. acetivorans, anti-Flag purified from Triton X-100 solubilised membranes; seven covalent hemes c
T1 sequence (Q8TSY5 25-500): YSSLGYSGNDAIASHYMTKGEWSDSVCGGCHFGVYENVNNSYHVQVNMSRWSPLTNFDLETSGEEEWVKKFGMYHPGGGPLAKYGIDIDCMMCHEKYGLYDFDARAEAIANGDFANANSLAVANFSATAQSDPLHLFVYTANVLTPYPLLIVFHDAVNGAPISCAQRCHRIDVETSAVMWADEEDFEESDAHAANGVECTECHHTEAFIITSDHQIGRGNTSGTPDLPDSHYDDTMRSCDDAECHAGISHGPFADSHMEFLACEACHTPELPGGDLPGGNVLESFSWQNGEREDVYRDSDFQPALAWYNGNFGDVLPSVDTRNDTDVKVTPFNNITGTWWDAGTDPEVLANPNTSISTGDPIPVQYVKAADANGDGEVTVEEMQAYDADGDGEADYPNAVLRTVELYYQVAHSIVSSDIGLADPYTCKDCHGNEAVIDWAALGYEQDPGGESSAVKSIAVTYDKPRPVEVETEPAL
Assay: UV-vis spectral oxidation of dithionite-reduced MmcA
Format: biochemical
Conditions: 2.5–3.5 µM MmcA, 50 mM Tris-HCl, 150 mM NaCl, 2% glycerol, pH 7.4, room temperature, anaerobic

Row | SMILES | UV-vis spectral oxidation of dithionite-reduced MmcA (electron acceptor, soluble methanophenazine analogue, 200 µM) | UV-vis spectral oxidation of dithionite-reduced MmcA (electron acceptor in excess)
1 | Oc1ccc2nc3ccccc3nc2c1 [2HP, 2-hydroxyphenazine] | The addition of 2HP instantaneously oxidized MmcA as observed by a shift in its Soret | 
2 | O=C1c2ccc(S(=O)(=O)O)cc2C(=O)c2ccc(S(=O)(=O)O)cc21 [AQDS, anthraquinone-2,6-disulfonate] |  | All three electron acceptors oxidized MmcA rapidly
